Measurements published in US20240254093A1, “GPR35 Agonist Compounds” (Heptares Therapeutics Limited, priority 2021, published 2024).
Where two headings read alike, the source gives them in different places.

How the values were obtained:
GPR35 [1] = target: T1, GPR35 (Homo sapiens (Human), UniProt Q9HC97); conditions: reported in US20130316985; read-out: EC50 (weak agonist activity at GPR35); cited from earlier work
Target sequence in this assay (Q9HC97 whole entry, species assumed): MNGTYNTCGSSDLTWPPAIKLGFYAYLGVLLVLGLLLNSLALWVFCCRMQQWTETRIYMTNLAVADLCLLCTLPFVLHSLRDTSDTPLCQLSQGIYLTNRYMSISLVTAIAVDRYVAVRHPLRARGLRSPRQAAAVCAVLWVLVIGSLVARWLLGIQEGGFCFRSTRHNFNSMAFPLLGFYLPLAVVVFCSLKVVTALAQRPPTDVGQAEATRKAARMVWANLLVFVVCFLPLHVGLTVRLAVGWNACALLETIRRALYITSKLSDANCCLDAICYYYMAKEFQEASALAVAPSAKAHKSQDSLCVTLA

GPR35 [2] = target: T1, GPR35; assay: selectivity for GPR35 / off-target effects
Target sequence in this assay (Q9HC97 whole entry, species assumed): as above

[3] = system: PGE2-induced fluid secretion; assay: PGE2-induced fluid secretion; format: in vivo; conditions: preclinical species
[4] = system: indomethacin ileitis and barrier permeability; assay: indomethacin ileitis and barrier permeability; format: in vivo; conditions: preclinical species
Human GPR35a isoform = Human GPR35a isoform (Homo sapiens (Human), UniProt Q9HC97); assay: Human GPR35a isoform binding (radioligand, HEK293f membranes); conditions: HEKf cell membranes overexpressing GPR35a isoform; read-out: Human GPR35 Ki
Human GPR35a isoform, sequence (Q9HC97 whole entry, canonical isoform): as the sequence (Q9HC97 whole entry, species assumed) above
Experimental: Overexpression of Human GPR35a Baculovirus in HEK293f cells at a cell density of 2.5×10^6 cells/mL and a multiplicity of infection of 2.5 over 24 h in Pro293 (Lonza)+5% FBS, 1% Glutamax and 0.4% Pen/Strep. Cells harvested and centrifuged at 2500 RPM for 10 mins at 4° C. The supernatant was then poured off and the pellet stored at −80° C. The pellet was defrosted and re-suspended in 15 mL of homogenising buffer (20 mM HEPES, 10 mM EDTA, pH 7.4). Then homogenised in mechanical homogeniser (VMR) for 10 seconds. The membrane was centrifuged in centrifuge tubes at 40,000 g for 15 mins at 4° C. The supernatant was poured away and re-suspended in 15 mL of homogenising buffer. Homogenised for 20 seconds. The membrane was centrifuged at 40,000 g for 45 mins at 4° C. The membrane was re-suspended in 3 mL of storage buffer (20 mM HEPES, 0.1 mM EDTA, pH 7.4) mixing well. The resulting membranes were then stored at −80°. GPR35 cell membrane homogenates were re-suspended in the binding buffer (50 mM TRIS+10 mM MgCl2 pH 7.4) to a final assay concentration of 5 ug/well. Test compounds were diluted in dimethylsulphoxide (DMSO (Sigma Aldrich, UK)), to form a 10 point ½ log concentration curve. Test compounds were added per plate, followed by 7 nM 3H-27966. 0.1 uM FAC Lodoxamide was added in order to allow non-specific binding to be calculated. Finally, membrane was added to each well on the plate. After 60 min incubation at room temperature, membranes were filtered onto a unifilter, 96-well white microplate with bonded GF/B filter, pre-soaked in ddH20, with a TomTec cell harvester, and washed 5 times with distilled water. Plates were dried prior to 50 ul/well scintillant added, sealed and radioactivity measured using a MicroBeta analyser. IC50 values were derived from the inhibition curve and affinity constant (Ki) values were calculated using the Cheng-Prussoff equation, where; pKi=−log 10 Ki.
(§1) • Ki values derived from concentration response analysis in HEKf cell membranes overexpressing GPR35a isoform. EC50 values derived from concentration response analysis in HT-29 cell line endogenously expressing human GPR35.

[5] = system: major human CYPs, including CYP3A4; assay: drug interaction potential for major human CYPs; format: in vitro ADME
LPS challenge = assay: acute rat and mouse LPS challenge; format: in vivo
TNBS visceral pain = assay: TNBS mouse visceral pain model; format: in vivo
GPR35 [6] = target: T1, GPR35; assay: Label-free DMR functional assay in HT-29 cells; format: cell-based; conditions: for EC50: HT-29 cell line endogenously expressing human GPR35, DMR normalised to Lodoxamide
Experimental: HT-29 cells (ATCC HTB-38) kept in continuous culture in McCoys (Thermo 16600082) supplemented with 10% FBS. Day prior to assay, cells harvested with TrypLE (Gibco12604-013), and plated at 20 k/well in culture media in a total volume of 50 ul in Corning EPIC 384 well plates (5040) overnight 37° C. 5% CO2. On the day of assay, cell media was removed and replaced with assay buffer (HBSS+20 mM HEPES pH7.4) and reincubated for 1 h. Compounds were prepared in 100% DMSO in ECHO LDV 384 source plates. Cell plates were read on an EPIC plate reader at room temperature for 15 mins, read paused, and cell plate added to LabCyte ECHO 550 for addition of 50 nl per well compound by acoustic transfer. Plates were immediately placed back into the EPIC reader, read unpaused and Dynamic Mass Redistribution measured for 60 minutes. Raw data was analysed by EPIC Analyser software and max peak taken per concentration to enable EC50 determination. All raw DMR data was normalised to Lodoxamide and buffer corrected.
as §1
Target sequence in this assay (Q9HC97 whole entry): as the sequence (Q9HC97 whole entry, species assumed) above

GPR35 [7] = target: T1, GPR35; conditions: human vs rat GPR35; cited from earlier work
Target sequence in this assay (Q9HC97 whole entry): as the sequence (Q9HC97 whole entry, species assumed) above

## Nc1ccc(O)c(C(=O)O)c1 [5-aminosalicylic acid]
GPR35 [1]
  EC50: ~3000 nM

## O=C(NCc1ccccc1)c1ccc(-c2cc(Nc3c(O)c(=O)c3=O)cc(-c3nn[nH]n3)c2)cc1 [Example 5, N-benzyl-3′-((2-hydroxy-3,4-dioxocyclobut-1-en-1-yl)amino)-5′-(1H-tetrazol-5-yl)-[1,1′-biphenyl]-4-carboxamide]
GPR35 [2]
  off-target effects: no off-target effects have been observed
  selectivity for GPR35: strong selectivity
[3]
  pharmacology in PGE2-induced fluid secretion: showed pharmacology
[4]
  pharmacology in indomethacin ileitis and barrier permeability: showed pharmacology
Human GPR35a isoform
  Ki: 0.08 nM
[5]
  drug interaction potential for the major human CYPs: very low drug interaction potential
LPS challenge
  pharmacology in acute rat and mouse LPS challenge: showed pharmacology
TNBS visceral pain
  pharmacology in TNBS mouse visceral pain model: showed pharmacology
GPR35 [6]
  EC50: 0.52 nM
GPR35 [6]; relative to Cromolyn
  functional potency for GPR35 higher than Cromolyn: about 500 times

## O=c1c(O)c(Nc2cc(-c3nn[nH]n3)cc(C3CCCCC3)c2)c1=O [Example 28, 3-((3-cyclohexyl-5-(1H-tetrazol-5-yl)phenyl)amino)-4-hydroxycyclobut-3-ene-1,2-dione]
Human GPR35a isoform
  Ki: 12.5 nM
GPR35 [6]
  EC50: 6.65 nM

## O=c1c(O)c(Nc2cc(-c3ccnnc3)cc(-c3nn[nH]n3)c2)c1=O [Example 29, 3-hydroxy-4-((3-(pyridazin-4-yl)-5-(1H-tetrazol-5-yl)phenyl)amino)cyclobut-3-ene-1,2-dione]
Human GPR35a isoform
  Ki: 0.74 nM
GPR35 [6]
  EC50: 1.05 nM

## CN(C)C(=O)c1ccc(-c2cc(Nc3c(O)c(=O)c3=O)cc(-c3nn[nH]n3)c2)cc1 [Example 30, 3′-((2-hydroxy-3,4-dioxocyclobut-1-en-1-yl)amino)-N,N-dimethyl-5′-(1H-tetrazol-5-yl)-[1,1′-biphenyl]-4-carboxamide]
Human GPR35a isoform
  Ki: 5.99 nM
GPR35 [6]
  EC50: 2.64 nM

## NC(=O)c1ccc(CNC(=O)c2ccc(-c3cc(Nc4c(O)c(=O)c4=O)cc(-c4nn[nH]n4)c3)cc2)cc1 [Example 31, N-(4-carbamoylbenzyl)-3′-((2-hydroxy-3,4-dioxocyclobut-1-en-1-yl)amino)-5′-(1H-tetrazol-5-yl)-[1,1′-biphenyl]-4-carboxamide]
Human GPR35a isoform
  Ki: 1.61 nM
GPR35 [6]
  EC50: 11.3 nM

## O=C(O)c1cc(=O)c2ccccc2[nH]1 [kynurenic acid]
GPR35 [7]
  potency at the human receptor lower compared to the rat ortholog: at least 100 fold

## O=C(O)c1cc(/N=N/c2ccc(S(=O)(=O)Nc3ccccn3)cc2)ccc1O [sulfasalazine]
GPR35 [1]
  EC50: ~3000 nM
